Test results reported in US7968097B2, “Identification of Hla-A2-presented T-cell epitopes derived from the oncofoetal antigen-immature laminin receptor protein and uses thereof” (Immatics Biotechnologies GmbH, priority 2005, dated 2011).
Entries after “also recorded” stand apart in the source; their conditions may differ.

Test system: PBMC of HLA-A*02 positive healthy donors
Test: IFN-γ ELISPOT, healthy donors
Details: peripheral blood samples of healthy donors, IFN-γ ELISPOT
Experimental: To determine the frequency of OFA/iLR peptide-specific T cells in patients, ELISPOT-assays were performed using the Interferon-γ-ELISPOT-Kit (Becton Dickinson, Heidelberg, Germany) according to manufacturer's instructions.
Prior to analysis, T cells from patients and healthy donors had been kept in culture for seven days in the presence of Interleukin-2 (IL microgram/10^6 PBMC/milliliter).

Sequence	CTL / spontaneous T cell responses against peptide in healthy individuals
LLAARAIVAI (listed as Homo sapiens) [ILR1]	no spontaneous T cell responses; also recorded: low numbers of CTL
ALCNTDSPL (listed as Homo sapiens) [ILR2]	no spontaneous T cell responses; also recorded: low numbers of CTL
